Like-named read-outs stand apart in the source and are kept apart here.
How the values were obtained:
Type in all cases: biochemical
KPC-2 [1] = target: T1, KPC-2 (Klebsiella pneumoniae, UniProt Q9F663); assay: nitrocefin hydrolysis at […] nm, […] min pre-incubation
KPC-2 [2] = target: T1, KPC-2; assay: as above; remark: listed apart in the source
KPC-2 [3] = target: T1, KPC-2; assay: steady-state kinetics of hydrolysis at […] nm

T1 sequence (Q9F663 25-293, looked up): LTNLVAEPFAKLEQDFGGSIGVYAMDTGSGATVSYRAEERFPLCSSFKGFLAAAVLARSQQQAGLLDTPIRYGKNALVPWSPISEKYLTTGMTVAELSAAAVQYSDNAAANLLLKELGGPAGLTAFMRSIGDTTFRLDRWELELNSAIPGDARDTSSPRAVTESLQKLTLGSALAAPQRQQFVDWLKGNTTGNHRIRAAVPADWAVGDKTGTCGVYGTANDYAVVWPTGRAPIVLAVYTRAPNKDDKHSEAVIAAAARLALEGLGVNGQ

C[C@]1(Cn2ccnn2)[C@H](C(=O)O)N2C(=O)C[C@H]2S1(=O)=O [tazobactam]
IC50 (KPC-2 [1]): 9.2 µM

O=C(O)[C@H]1/C(=C/CO)O[C@@H]2CC(=O)N21 [clavulanate]
IC50 (KPC-2 [2]): 6.5 µM

O=C(Cc1cccs1)N[C@@H]1C(=O)N2C(C(=O)O)=C(/C=C/c3ccc([N+](=O)[O-])cc3[N+](=O)[O-])CS[C@H]12 [nitrocefin]
Km (KPC-2 [3]): 52 µM
